{"source": "ChEMBL document CHEMBL6103575", "about": "“Design, synthesis and evaluation of (E)-1-(4-(2-(1H-pyrazol-5-yl)vinyl)phenyl) derivatives as next generation selective RET inhibitors overcoming RET solvent front mutations (G810C/R)” (Eur J Med Chem, 2025)", "key": {"BaF3 [1]": {"test_system": "BaF3", "assay": "Antiproliferative activity against mouse BaF3 cells harbouring CCDC6-RET G810C mutant assessed as inhibition of cell proliferation incubated for 72 hrs by CCK-8 assay", "assay_type": "functional, cell-based", "settings": "BaF3, 72 h"}, "[2]": {"assay": "Induction of apoptosis in mouse BaF3 cells harboring CCDC6-RET assessed as early apoptotic cells at 30 nM incubated for 48 hrs by Annexin V-PE staining based flow cytometry analysis (Rvb =6.21%)", "assay_type": "functional"}, "[3]": {"assay": "Induction of apoptosis in mouse BaF3 cells harboring CCDC6-RET G810C mutant assessed as early apoptotic cells at 30 nM incubated for 48 hrs by Annexin V-PE staining based flow cytometry analysis (Rvb =8.74%)", "assay_type": "functional"}, "Ephrin type-B receptor 4": {"target": "T1, Ephrin type-B receptor 4 (Homo sapiens, UniProt P54760)", "T1 sequence (P54760 whole entry)": "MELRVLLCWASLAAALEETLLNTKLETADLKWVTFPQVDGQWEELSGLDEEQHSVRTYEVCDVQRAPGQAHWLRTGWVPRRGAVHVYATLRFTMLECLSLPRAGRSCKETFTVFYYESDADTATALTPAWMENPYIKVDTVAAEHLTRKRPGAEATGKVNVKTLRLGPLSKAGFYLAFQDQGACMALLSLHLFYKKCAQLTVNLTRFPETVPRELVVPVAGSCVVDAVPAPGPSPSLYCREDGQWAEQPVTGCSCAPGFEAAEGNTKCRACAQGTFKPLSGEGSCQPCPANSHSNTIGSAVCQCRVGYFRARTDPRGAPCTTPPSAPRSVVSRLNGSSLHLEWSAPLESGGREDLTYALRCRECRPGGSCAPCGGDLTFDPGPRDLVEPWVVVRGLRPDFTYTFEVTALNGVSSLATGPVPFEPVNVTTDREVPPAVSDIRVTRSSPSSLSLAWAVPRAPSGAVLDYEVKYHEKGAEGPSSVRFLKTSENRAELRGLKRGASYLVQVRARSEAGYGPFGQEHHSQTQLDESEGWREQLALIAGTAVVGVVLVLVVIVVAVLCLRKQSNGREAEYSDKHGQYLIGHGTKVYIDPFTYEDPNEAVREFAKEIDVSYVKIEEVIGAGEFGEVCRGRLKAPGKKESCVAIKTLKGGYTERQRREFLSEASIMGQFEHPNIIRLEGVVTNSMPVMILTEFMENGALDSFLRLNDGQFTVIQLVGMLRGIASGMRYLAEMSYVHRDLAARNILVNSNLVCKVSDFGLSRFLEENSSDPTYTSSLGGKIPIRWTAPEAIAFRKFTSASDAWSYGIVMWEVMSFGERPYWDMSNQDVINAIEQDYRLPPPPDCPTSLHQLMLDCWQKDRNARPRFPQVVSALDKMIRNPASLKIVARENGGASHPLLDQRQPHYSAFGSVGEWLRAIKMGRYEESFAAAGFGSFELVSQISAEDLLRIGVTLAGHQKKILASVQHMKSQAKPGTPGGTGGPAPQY", "assay": "Inhibition of EPHB4 (unknown origin)"}, "[4]": {"assay": "Induction of apoptosis in mouse BaF3 cells harboring CCDC6-RET G810R mutant assessed as early apoptotic cells at 30 nM incubated for 48 hrs by Annexin V-PE staining based flow cytometry analysis (Rvb =10 %)", "assay_type": "functional"}, "[5]": {"assay": "Induction of cell cycle arrest in mouse BaF3 cells harboring CCDC6-RET G810R mutant assessed as accumulation of cells at G2/M phase at 300 nM incubated for 24 hrs by propidium iodide staining based analysis (reference value: 33.61%)", "assay_type": "functional"}, "[6]": {"assay": "Induction of cell cycle arrest in mouse BaF3 cells harboring CCDC6-RET G810C mutant assessed as accumulation of cells at G2/M phase at 30 nM incubated for 24 hrs by propidium iodide staining based analysis (reference value: 34.75%)", "assay_type": "functional"}, "[7]": {"assay": "Induction of cell cycle arrest in mouse BaF3 cells harboring CCDC6-RET G810C mutant assessed as accumulation of cells at G2/M phase at 100 nM incubated for 24 hrs by propidium iodide staining based analysis (reference value: 34.75%)", "assay_type": "functional"}, "[8]": {"assay": "Induction of apoptosis in mouse BaF3 cells harboring CCDC6-RET assessed as late apoptotic cells at 300 nM incubated for 48 hrs by Annexin V-PE staining based flow cytometry analysis (Rvb =2.44%)", "assay_type": "functional"}, "[9]": {"assay": "Induction of cell cycle arrest in mouse BaF3 cells harboring CCDC6-RET assessed as accumulation of cells at G2/M phase at 30 nM incubated for 24 hrs by propidium iodide staining based analysis (reference value: 34.11%)", "assay_type": "functional"}, "Ephrin type-A receptor 2": {"target": "Ephrin type-A receptor 2 (Homo sapiens, UniProt P29317)", "sequence (P29317 whole entry)": "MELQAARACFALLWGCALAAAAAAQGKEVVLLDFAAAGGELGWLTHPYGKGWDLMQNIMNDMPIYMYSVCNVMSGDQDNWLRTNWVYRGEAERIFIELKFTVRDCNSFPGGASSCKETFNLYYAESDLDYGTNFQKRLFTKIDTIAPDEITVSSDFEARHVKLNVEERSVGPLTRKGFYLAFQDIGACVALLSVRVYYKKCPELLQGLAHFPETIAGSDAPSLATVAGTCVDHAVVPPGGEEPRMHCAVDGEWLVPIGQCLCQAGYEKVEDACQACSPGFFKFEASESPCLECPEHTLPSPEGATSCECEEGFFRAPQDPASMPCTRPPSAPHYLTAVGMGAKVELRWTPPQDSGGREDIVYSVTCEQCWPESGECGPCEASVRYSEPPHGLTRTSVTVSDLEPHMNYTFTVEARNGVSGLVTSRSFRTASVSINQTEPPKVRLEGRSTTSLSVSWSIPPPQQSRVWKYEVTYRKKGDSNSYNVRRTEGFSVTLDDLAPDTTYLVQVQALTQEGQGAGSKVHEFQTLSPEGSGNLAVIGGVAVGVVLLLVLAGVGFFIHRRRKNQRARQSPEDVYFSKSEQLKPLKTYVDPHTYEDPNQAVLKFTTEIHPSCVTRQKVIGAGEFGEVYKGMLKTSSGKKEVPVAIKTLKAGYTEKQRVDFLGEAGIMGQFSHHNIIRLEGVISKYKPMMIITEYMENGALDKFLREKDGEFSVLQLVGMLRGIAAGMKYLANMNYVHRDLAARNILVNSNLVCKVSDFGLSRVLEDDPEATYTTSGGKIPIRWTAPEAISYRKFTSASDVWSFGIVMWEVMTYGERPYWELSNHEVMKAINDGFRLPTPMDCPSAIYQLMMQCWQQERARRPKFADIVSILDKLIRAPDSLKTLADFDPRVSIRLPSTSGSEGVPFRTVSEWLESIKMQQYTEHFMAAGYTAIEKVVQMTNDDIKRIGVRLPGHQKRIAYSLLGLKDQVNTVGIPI", "assay": "Inhibition of EPHA2 (unknown origin) at 1 uM relative to control"}, "[10]": {"assay": "Induction of cell cycle arrest in mouse BaF3 cells harboring CCDC6-RET G810R mutant assessed as accumulation of cells at G0/G1 phase at 10 nM incubated for 24 hrs by propidium iodide staining based analysis (reference value: 52.63%)", "assay_type": "functional"}, "[11]": {"assay": "Induction of cell cycle arrest in mouse BaF3 cells harboring CCDC6-RET G810C mutant assessed as accumulation of cells at G2/M phase at 300 nM incubated for 24 hrs by propidium iodide staining based analysis (reference value: 34.75%)", "assay_type": "functional"}, "[12]": {"target": "BDNF/NT-3 growth factors receptor (Homo sapiens, UniProt Q16620)", "sequence (Q16620 32-822 limits assumed)": "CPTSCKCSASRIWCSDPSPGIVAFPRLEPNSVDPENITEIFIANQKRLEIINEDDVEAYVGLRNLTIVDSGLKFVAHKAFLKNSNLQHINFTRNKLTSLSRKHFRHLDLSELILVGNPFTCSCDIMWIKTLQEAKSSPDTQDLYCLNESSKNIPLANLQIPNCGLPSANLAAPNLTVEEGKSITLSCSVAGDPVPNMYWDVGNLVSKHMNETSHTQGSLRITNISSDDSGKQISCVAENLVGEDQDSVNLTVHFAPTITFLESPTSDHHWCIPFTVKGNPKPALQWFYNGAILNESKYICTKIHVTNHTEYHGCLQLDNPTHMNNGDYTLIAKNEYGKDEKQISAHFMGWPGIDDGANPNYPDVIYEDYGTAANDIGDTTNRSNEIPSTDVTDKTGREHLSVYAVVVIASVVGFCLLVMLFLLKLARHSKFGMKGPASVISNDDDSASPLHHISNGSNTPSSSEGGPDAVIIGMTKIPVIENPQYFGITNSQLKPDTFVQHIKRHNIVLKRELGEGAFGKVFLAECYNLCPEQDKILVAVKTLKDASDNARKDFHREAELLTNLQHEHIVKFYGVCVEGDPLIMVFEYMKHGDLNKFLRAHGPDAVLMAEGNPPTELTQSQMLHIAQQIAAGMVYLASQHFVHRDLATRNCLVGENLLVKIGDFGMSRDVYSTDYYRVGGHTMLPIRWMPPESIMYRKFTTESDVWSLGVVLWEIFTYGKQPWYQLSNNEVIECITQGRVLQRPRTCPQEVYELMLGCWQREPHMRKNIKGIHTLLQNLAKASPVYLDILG", "assay": "Inhibition of TRKB (unknown origin) at 1 uM relative to control"}, "[13]": {"assay": "Induction of apoptosis in mouse BaF3 cells harboring CCDC6-RET G810R mutant assessed as late apoptotic cells at 100 nM incubated for 48 hrs by Annexin V-PE staining based flow cytometry analysis (Rvb =3.21%)", "assay_type": "functional"}, "[14]": {"assay": "Toxicity in SCID mouse implanted with mouse BaF3 cells assessed as change in body weight at 25 mg/kg, ip administered once daily for 10 days", "assay_type": "organism-based", "settings": "in vivo, 240 h, time 10 day"}, "[15]": {"assay": "Induction of apoptosis in mouse BaF3 cells harboring CCDC6-RET G810R mutant assessed as late apoptotic cells at 30 nM incubated for 48 hrs by Annexin V-PE staining based flow cytometry analysis (Rvb =3.21%)", "assay_type": "functional"}, "BaF3 [16]": {"test_system": "BaF3", "assay": "Antiproliferative activity against mouse BaF3 cells harbouring CCDC6-RET V804M mutant assessed as inhibition of cell proliferation incubated for 72 hrs by CCK-8 assay", "assay_type": "functional, cell-based", "settings": "BaF3, 72 h"}, "[17]": {"assay": "Induction of apoptosis in mouse BaF3 cells harboring CCDC6-RET assessed as necrotic cells at 100 nM incubated for 48 hrs by Annexin V-PE staining based flow cytometry analysis (Rvb =0.19%)", "assay_type": "functional"}, "[18]": {"assay": "Induction of apoptosis in mouse BaF3 cells harboring CCDC6-RET G810R mutant assessed as early apoptotic cells at 10 nM incubated for 48 hrs by Annexin V-PE staining based flow cytometry analysis (Rvb =10 %)", "assay_type": "functional"}, "[19]": {"assay": "Induction of cell cycle arrest in mouse BaF3 cells harboring CCDC6-RET assessed as accumulation of cells at G0/G1 phase at 10 nM incubated for 24 hrs by propidium iodide staining based analysis (reference value: 52.51%)", "assay_type": "functional"}, "[20]": {"assay": "Induction of cell cycle arrest in mouse BaF3 cells harboring CCDC6-RET assessed as accumulation of cells at S phase at 10 nM incubated for 24 hrs by propidium iodide staining based analysis (reference value: 13.27%)", "assay_type": "functional"}}, "data": [{"smiles": "COc1cncc(-c2cn[nH]c2/C=C/c2ccc(NC(=O)Nc3cc(C(C)(C)C(F)(F)F)on3)c(Cl)c2)c1", "values": [{"measurement": "IC50", "setting": "BaF3 [1]", "value": 25.7, "unit": "nM"}, {"measurement": "Activity", "setting": "[2]", "value": 22.34, "unit": "%"}, {"measurement": "Activity", "setting": "[3]", "value": 9.54, "unit": "%"}, {"measurement": "IC50", "setting": "Ephrin type-B receptor 4", "value": 36.4, "unit": "nM"}, {"measurement": "Activity", "setting": "[4]", "value": 9.96, "unit": "%"}, {"measurement": "Activity", "setting": "[5]", "value": 16.09, "unit": "%"}, {"measurement": "Activity", "setting": "[6]", "value": 30.79, "unit": "%"}, {"measurement": "Activity", "setting": "[7]", "value": 25.81, "unit": "%"}, {"measurement": "Activity", "setting": "[8]", "value": 1.39, "unit": "%"}, {"measurement": "Activity", "setting": "[9]", "value": 30.23, "unit": "%"}, {"measurement": "inhibition", "setting": "Ephrin type-A receptor 2", "value": 100, "unit": "%"}, {"measurement": "Activity", "setting": "[10]", "value": 54.03, "unit": "%"}, {"measurement": "Activity", "setting": "[11]", "value": 23.18, "unit": "%"}, {"measurement": "inhibition", "setting": "[12]", "value": 100, "unit": "%"}, {"measurement": "Activity", "setting": "[13]", "value": 10.19, "unit": "%"}, {"measurement": "Activity", "setting": "[14]", "value": "Non-toxic"}, {"measurement": "Activity", "setting": "[15]", "value": 2.48, "unit": "%"}, {"measurement": "IC50", "setting": "BaF3 [16]", "value": 563, "unit": "nM"}, {"measurement": "Activity", "setting": "[17]", "value": 0.05, "unit": "%"}, {"measurement": "Activity", "setting": "[18]", "value": 10.05, "unit": "%"}, {"measurement": "Activity", "setting": "[19]", "value": 54, "unit": "%"}, {"measurement": "Activity", "setting": "[20]", "value": 13.37, "unit": "%"}]}]}
